# Laboratory results: publication PMC6120190, “Identification of two distinct peptide-binding pockets in the SH3 domain of human mixed-lineage kinase 3” (The Journal of Biological Chemistry, 2018)
# No end group written: not given here. *: point of attachment. Biotin = O=C1N[C@H]2[C@H](CS[C@H]2CCCCC(=O)*)N1
# T1: GST-MLK3 SH3(43–104) (human, UniProt Q16584 43-104)
# T1 construct: also called GST-MLK3 SH3-WT; SH3 WT
# T1 sequence (looked up): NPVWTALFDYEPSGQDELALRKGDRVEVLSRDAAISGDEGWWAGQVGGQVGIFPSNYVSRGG
# T2: GST-MLK1 SH3 (UniProt P80192 52-116)
# T2 construct: also called SH3 domain of MLK1
# T2 sequence (looked up): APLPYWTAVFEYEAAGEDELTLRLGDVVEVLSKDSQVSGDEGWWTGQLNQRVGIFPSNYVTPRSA
# T3: GST-MLK2 SH3 (UniProt Q02779 16-81)
# T3 construct: also called SH3 domain of MLK2
# T3 sequence (looked up): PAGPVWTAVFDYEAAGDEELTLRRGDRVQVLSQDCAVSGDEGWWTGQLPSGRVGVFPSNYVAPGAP
# T4: GST-MLK4 SH3 (UniProt Q5TCX8 38-102)
# T4 construct: also called SH3 domain of MLK4
# T4 sequence (looked up): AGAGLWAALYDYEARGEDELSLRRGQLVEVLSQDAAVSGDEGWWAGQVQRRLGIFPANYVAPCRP
# B1: unlabeled MIP (synthetic) (peptide)
# peptide: AIRINPNGTWSRQAETVES
# notes: also called MIP(1–19); soluble MIP peptide; source: synthetic peptide
# B2: biotinylated NS5A peptide ([…]-GGG-K-biotin) (peptide)
# peptide: KKAPTPPPRRRRGGGK(Biotin)
# notes: also called immobilized NS5A; source: synthetic peptide
# B3: MLK3 SH3(41–105)-MIP(1–13) fusion protein (other, human)
# chain: YANPVWTALFDYEPSGQDELALRKGDRVEVLSRDAAISGDEGWWAGQVGGQVGIFPSNYVSRGGGAIRINPNGTWSRQ
# notes: also called the WT construct
# Columns and labels:
# GST-MLK1 SH3 [1] = assay: specificity ELISA, MLK1; format: binding, human; conditions: biotinylated peptide ≈2 μM on NeutrAvidin; GST-SH3 0.15 μM, 1–1.5 h; anti-GST-HRP; triplicate (Fig. 8)
# Procedure: (§1) Figure 8. Binding of MIP and NS5A peptides to SH3 domain of other members of MLK subfamily (MLK1–4). To determine whether MIP and NS5A can interact with SH3 domains of MLK1–4 proteins, the purified GST-MLK1–4 SH3 domains were incubated with biotinylated peptides, NS5A peptide ([…]-GGG-K-biotin), MIP ([…]-K-biotin), and MIP-R12A ([…]-K-biotin), immobilized on a NeutrAvidin-coated 96-well ELISA plate. Binding of SH3 domain was detected with anti-GST antibody conjugated to HRP. […] See also Fig. S6.
# (§2) Two plasmids, gifts from Dr. Gerardo Morfini, University of Illinois at Chicago, encoding a GST protein fused to either the WT or mutant Y52A of the SH3 domain of MLK3 (UniProt entry Q16584; aa 43–104), respectively, between BamHI and EcoRI sites, were transformed into the Escherichia coli strain Rosetta(DE3)pLysS. DNA fragments encoding the SH3 domain of MLK1 (UniProt entry P80192; aa 52–116), MLK2 (UniProt entry Q02779; aa 16–81), and MLK4 (UniProt entry Q5TCX8; aa 38–102) were commercially prepared as gBlocks® Gene Fragments (Integrated DNA Technologies, Inc.). All coding regions were codon-optimized for E. coli expression. DNA fragments were cleaved with BamHI-HF® and EcoRI-HF® (New England Biolabs) and subsequently ligated into pGex-2T vector. […]
# GST-MLK2 SH3 [2] = assay: specificity ELISA, MLK2; format: binding, human; conditions: biotinylated peptide ≈2 μM on NeutrAvidin; GST-SH3 0.15 μM, 1–1.5 h; anti-GST-HRP; triplicate (Fig. 8)
# Procedure: as §1, §2
# GST-MLK3 SH3 [3] = assay: specificity ELISA, MLK3; format: binding, human; conditions: biotinylated peptide ≈2 μM on NeutrAvidin; GST-SH3 0.15 μM, 1–1.5 h; anti-GST-HRP; triplicate (Fig. 8)
# Procedure: as §1, §2
# GST-MLK4 SH3 [4] = assay: specificity ELISA, MLK4; format: binding, human; conditions: biotinylated peptide ≈2 μM on NeutrAvidin; GST-SH3 0.15 μM, 1–1.5 h; anti-GST-HRP; triplicate (Fig. 8)
# Procedure: as §1, §2
# MLK3 SH3 domain Y52A = assay: binding to Y52A mutant of MLK3 SH3; design: species or system human; conditions: data not shown
# Excerpt: Two plasmids, gifts from Dr. Gerardo Morfini, University of Illinois at Chicago, encoding a GST protein fused to either the WT or mutant Y52A of the SH3 domain of MLK3 (UniProt entry Q16584; aa 43–104), respectively, between BamHI and EcoRI sites, were transformed into the Escherichia coli strain Rosetta(DE3)pLysS. DNA fragments encoding the SH3 domain of MLK1 (UniProt entry P80192; aa 52–116), MLK2 (UniProt entry Q02779; aa 16–81), and MLK4 (UniProt entry Q5TCX8; aa 38–102) were commercially prepared as gBlocks® Gene Fragments (Integrated DNA Technologies, Inc.). All coding regions were codon-optimized for E. coli expression. DNA fragments were cleaved with BamHI-HF® and EcoRI-HF® (New England Biolabs) and subsequently ligated into pGex-2T vector. The resulting DNA constructs, pGex-MLK1 SH3, pGex-MLK2 SH3, and pGex-MLK4 SH3 (verified by sequencing) were transformed into E. coli strain BL21(DE3).
# GST tag = assay: binding of MIP to GST tag; conditions: ELISA
# Procedure: After three washes with PBS containing 0.1% Tween 20 (PBST), retention of the SH3 domain fusion protein in wells was detected with an anti-GST antibody conjugated to horseradish peroxidase (HRP) (GE Healthcare; 45 min; 1:5000 in PBST). Following three washes with PBST, the chromogenic substrate solution 2,2-azinobis(3-ethylbenzthiazoline-6-sulfonic acid) (ABTS; Pierce); 10 ml of 50 mM sodium citrate, pH 4.0; and 100 μl of 3% H2O2 were added to the plate (100 μl/well). The absorbance was measured at 405 nm with a POLARstar OPTIMA microtiter plate reader (BMG Labtech).
# SH3 domain of MLK3 = conditions: cited from earlier work
# Excerpt: Mixed-lineage protein kinase 3 (MLK3) is widely expressed in a variety of normal and cancerous tissues, such as brain, lung, liver, heart, breast, kidney, pancreas, and skeletal muscle ([34][–][36]). MLK3, also known as MAP3K11, is a serine/threonine protein kinase involved in regulating the JNK, p38, and ERK pathways ([37][–][42]). It is composed of several modules: an SH3 domain, a kinase domain, tandem leucine zippers, a Cdc42/Rac interactive binding (CRIB) motif, several linker regions, and a proline-rich C-terminal tail ([39], [43]). According to the BioGRID interaction database ([44]), M ...
# GST-MLK3 SH3 [5] = assay: phage ELISA of phage-displayed MIP and variants on GST-MLK3 SH3; format: binding, human; conditions: original clone/MIP, anti-M13 mAb-HRP detection, experiments in duplicate, averaged
# Procedure: (§3) Figure 1. […] The presence of virions in the supernatant was determined by coating the wells of the microtiter plate with an anti-M13 mAb (anti-M13 Ab). Virions, which were retained in the microtiter plate wells, were detected with anti-M13 mAb conjugated to HRP. […] See also Fig. S1.
# Figure 2. […] The MIP sequence, NH2-[…]-COOH, was fused to the N terminus of the pIII capsid protein of bacteriophage M13 ([51]) to facilitate type 3 pentavalent display. Systematic alanine replacements in the peptide were generated by Kunkel mutagenesis ([11]); Ala-1 and Ala-14 were replaced with Val. […] The signal for binding of MIP (WT) to GST-MLK3 SH3 is set as 100%, and other values are normalized to it. […] See also Fig. S2.
# Screens for peptide ligands were performed following a protocol published previously ([11]). […] After three rounds of affinity selection, individual phage clones were isolated, and their binding was evaluated via phage ELISA ([11]). […]
# All constructs were generated via Kunkel mutagenesis ([11], [57], [58]) and facilitated type 3 (pentavalent) display. […] All constructs were verified by DNA sequencing, and phage clones were evaluated for their binding to the target (GST-MLK3 SH3) via phage ELISA ([11]). […]
# GST fusion partner = assay: phage ELISA of phage-displayed MIP on GST fusion partner; format: binding; conditions: duplicate (Fig. 1)
# Procedure: as §3
# Screens for peptide ligands were performed following a protocol published previously ([11]). The purified target protein, GST-MLK3 SH3-WT, was prebound to GSH magnetic beads (Pierce, catalogue number 88821), and nonspecific binding sites were blocked with phosphate-buffered saline (PBS; 137 mM NaCl, 3 mM KCl, 8 mM Na2HPO4, 1.5 mM KH2PO4) containing 3% (w/v) bovine serum albumin (BSA). […] After three rounds of affinity selection, individual phage clones were isolated, and their binding was evaluated via phage ELISA ([11]). Positive clones were then sequenced.
# GST-MLK3 SH3(43–104) [6] = target: T1, GST-MLK3 SH3(43–104); assay: ELISA; conditions: both partners purified
# GST-MLK3 SH3(43–104) [7] = target: T1, GST-MLK3 SH3(43–104); assay: ELISA; competition ELISA: GST-MLK3 SH3 (5 μg/ml) preincubated 1–1.5 h with ≈0.01–100 μM unlabeled competitor peptide, then 45 min on biotinylated MIP (≈2 μM) captured via NeutrAvidin; anti-GST-HRP detection; GST tag tested as a control; conditions: both partners purified
# GST-MLK1 SH3 [8] = target: T2, GST-MLK1 SH3; assay: ELISA; conditions: both partners purified
# GST-MLK2 SH3 [9] = target: T3, GST-MLK2 SH3; assay: ELISA; conditions: both partners purified
# GST-MLK4 SH3 [10] = target: T4, GST-MLK4 SH3; assay: ELISA; conditions: both partners purified
# SEC = target: the molecule itself; assay: SEC
molecule,measurement,setting,value
CC[C@H](C)[C@H](NC(=O)[C@H](C)N)C(=O)N[C@@H](CCCNC(=N)N)C(=O)N[C@H](C(=O)N[C@@H](CC(N)=O)C(=O)N1CCC[C@H]1C(=O)N[C@@H](CC(N)=O)C(=O)NCC(=O)N[C@H](C(=O)N[C@@H](Cc1c[nH]c2ccccc12)C(=O)N[C@@H](CO)C(=O)N[C@@H](CCCNC(=N)N)C(=O)N[C@@H](CCC(N)=O)C(=O)N[C@@H](C)C(=O)N[C@@H](CCC(=O)O)C(=O)N[C@H](C(=O)N[C@H](C(=O)N[C@@H](CCC(=O)O)C(=O)N[C@@H](CO)C(=O)O)C(C)C)[C@@H](C)O)[C@@H](C)O)[C@@H](C)CC [MIP],binding to MLK1 SH3,GST-MLK1 SH3 [1],bound
same,binding to MLK2 SH3,GST-MLK2 SH3 [2],did not bind
same,binding to MLK3 SH3,GST-MLK3 SH3 [3],bound
same,binding to MLK4 SH3,GST-MLK4 SH3 [4],bound
same,effect of SH3 mutation Y52A on peptide binding,MLK3 SH3 domain Y52A,disrupts binding
same,interaction with GST tag,GST tag,no interactions
HCV NS5A: hepatitis C virus nonstructural 5A protein,interaction with SH3 domain of MLK3,SH3 domain of MLK3,interact with the SH3 domain of MLK3 via a PXXPXR motif
"NH2-AIRINPNGTWSRQAETVES-COOH [phage-displayed MIP, MIP fused to the N terminus of the pIII capsid protein of bacteriophage M13]",binding to GST-MLK3 SH3 in phage ELISA,GST-MLK3 SH3 [5],bind to the WT form of the MLK3 SH3 domain
same,binding to GST fusion partner in phage ELISA,GST fusion partner,not the GST fusion partner
B1,IC50,GST-MLK3 SH3(43–104) [6],6.6 ± 1.6 µM
same,IC50,GST-MLK3 SH3(43–104) [7],15.8 ± 0.4 µM
B2,binding result,GST-MLK3 SH3(43–104) [6],binds
same,binding result,GST-MLK1 SH3 [8],binds
same,binding result,GST-MLK2 SH3 [9],binds
same,binding result,GST-MLK4 SH3 [10],binds
B3,binding result,SEC,binds
